Several values for one entry are separate records, joined by “and”; a condition that tells them apart may be missing. Identical values can stand only once. Toxic doses and inconclusive results are not listed.
Tested on: L1210 leukemia ip in BDF1 mice, survival T/C
Test: NCI In Vivo Anticancer Drug Screen. Data for tumor model L1210 Leukemia (intraperitoneal) in B6D2F1 (BDF1) mice
Conditions: endpoint: mean survival time, higher = longer survival
How it was run: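 Survival endpoint. Drug-treated group vs vehicle group, expressed as T divided by C. Tumor passaged by transplantation.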

[1] = dose: 100.0 mg/kg/injection, schedule: Q01DX009 (ip), vehicle: Klucel (hydroxypropylcellulose) (HPC)
[2] = dose: 100.0 mg/kg/injection, schedule: Q04DX003 (ip), vehicle: Klucel (hydroxypropylcellulose) (HPC)
[3] = dose: 200.0 mg/kg/injection, schedule: Q01DX009 (ip), vehicle: Klucel (hydroxypropylcellulose) (HPC)
[4] = dose: 200.0 mg/kg/injection, schedule: Q04DX003 (ip), vehicle: Klucel (hydroxypropylcellulose) (HPC)
[5] = dose: 100.0 mg/kg/injection, schedule: Q01DX009 (ip), vehicle: saline
[6] = dose: 100.0 mg/kg/injection, schedule: Q04DX003 (ip), vehicle: saline
[7] = dose: 200.0 mg/kg/injection, schedule: Q04DX003 (ip), vehicle: saline
[8] = dose: 400.0 mg/kg/injection, schedule: Q04DX003 (ip), vehicle: saline
[9] = dose: 100.0 mg/kg/injection, schedule: Q01DX001 (ip), vehicle: saline
[10] = dose: 200.0 mg/kg/injection, schedule: Q01DX001 (ip), vehicle: saline
[11] = dose: 400.0 mg/kg/injection, schedule: Q01DX001 (ip), vehicle: saline

With `Clc1ccccc1/C=N\N=C(N/N=C\c1ccccc1Cl)N/N=C/c1ccccc1Cl` the T/C (dose: 15.0 mg/kg/injection, schedule: Q01DX Z (ip), vehicle: carboxymethylcellulose (CMC)) was 103 % of control, the T/C (dose: 30.0 mg/kg/injection, schedule: Q01DX Z (ip), vehicle: carboxymethylcellulose (CMC)) was 97 % of control and the T/C (dose: 60.0 mg/kg/injection, schedule: Q01DX Z (ip), vehicle: carboxymethylcellulose (CMC)) was 98 % of control. For the same compound, the T/C (dose: 120.0 mg/kg/injection, schedule: Q01DX Z (ip), vehicle: carboxymethylcellulose (CMC)) was 97 % of control, the T/C (dose: 150.0 mg/kg/injection, schedule: Q01DX Z (oral), vehicle: carboxymethylcellulose (CMC)) was 101 % of control and the T/C (dose: 300.0 mg/kg/injection, schedule: Q01DX Z (oral), vehicle: carboxymethylcellulose (CMC)) was 101 % of control. For the same compound, the T/C (dose: 600.0 mg/kg/injection, schedule: Q01DX Z (oral), vehicle: carboxymethylcellulose (CMC)) was 101 % of control and the T/C (dose: 1200.0 mg/kg/injection, schedule: Q01DX Z (oral), vehicle: carboxymethylcellulose (CMC)) was 100 % of control.
For `Nc1cc(Cl)cc2c1-c1c(Cl)cc(Cl)cc1C2O` (configuration not stated), the T/C [1] was 102 % of control, the T/C [2] was 102 % of control and the T/C [3] was 100 % of control. For the same compound, the T/C [4] was 105 % of control and the T/C (dose: 400.0 mg/kg/injection, schedule: Q04DX003 (ip), vehicle: Klucel (hydroxypropylcellulose) (HPC)) was 97 % of control.
In the case of `Cc1ncc(C(=O)Nc2ccccc2)[nH]1`, the T/C [1] is reported as 113 % of control, the T/C [2] is reported as 105 % of control and the T/C [3] is reported as 106 % of control. The T/C [4] was 122 % of control.
In the case of `O=Cc1ccc([N+](=O)[O-])o1`, the T/C (dose: 10.0 mg/kg/injection, schedule: Q01DX001 (ip), vehicle: saline) is reported as 94 % of control, the T/C (dose: 12.5 mg/kg/injection, schedule: Q04DX002 (ip), vehicle: other) is reported as 102 % of control and the T/C (dose: 20.0 mg/kg/injection, schedule: Q01DX001 (ip), vehicle: saline) is reported as 100 % of control. For the same compound, the T/C (dose: 25.0 mg/kg/injection, schedule: Q04DX002 (ip), vehicle: other) was 97 % of control and the T/C (dose: 40.0 mg/kg/injection, schedule: Q01DX001 (ip), vehicle: saline) was 94 % of control.
In the case of `COc1cc(C=Nc2cccc(Br)c2)ccc1N(CCCl)CCCl`, the T/C (dose: 1.4 mg/kg/injection, schedule: Q01DX015 (ip), vehicle: carboxymethylcellulose (CMC)) is reported as 107 % of control, the T/C (dose: 2.2 mg/kg/injection, schedule: Q01DX015 (ip), vehicle: carboxymethylcellulose (CMC)) is reported as 111 % of control and the T/C (dose: 3.3 mg/kg/injection, schedule: Q01DX009 (ip), vehicle: saline) is reported as 101 % of control. The T/C (dose: 3.3 mg/kg/injection, schedule: Q01DX015 (ip), vehicle: carboxymethylcellulose (CMC)) was 113 % of control, the T/C (dose: 5.0 mg/kg/injection, schedule: Q01DX009 (ip), vehicle: saline) was 116 % of control and the T/C (dose: 5.0 mg/kg/injection, schedule: Q01DX015 (ip), vehicle: carboxymethylcellulose (CMC)) was 119 % of control and 121 % of control. For the same compound, the T/C (dose: 9.0 mg/kg/injection, schedule: Q01DX009 (ip), vehicle: saline) was 109 % of control, the T/C (dose: 9.0 mg/kg/injection, schedule: Q01DX015 (ip), vehicle: carboxymethylcellulose (CMC)) was 159 % of control and the T/C (dose: 15.0 mg/kg/injection, schedule: Q01DX009 (ip), vehicle: saline) was 111 % of control. The T/C (dose: 15.0 mg/kg/injection, schedule: Q01DX015 (ip), vehicle: carboxymethylcellulose (CMC)) was 105 % of control, the T/C (dose: 22.0 mg/kg/injection, schedule: Q01DX001 (ip), vehicle: carboxymethylcellulose (CMC)) was 111 % of control and the T/C (dose: 25.0 mg/kg/injection, schedule: Q01DX015 (ip), vehicle: carboxymethylcellulose (CMC)) was 94 % of control and 97 % of control. The T/C (dose: 25.0 mg/kg/injection, schedule: Q04DX003 (ip), vehicle: saline) was 86 % of control, the T/C (dose: 33.0 mg/kg/injection, schedule: Q01DX001 (ip), vehicle: carboxymethylcellulose (CMC)) was 108 % of control and the T/C (dose: 50.0 mg/kg/injection, schedule: Q01DX001 (ip), vehicle: carboxymethylcellulose (CMC)) was 113 % of control. For the same compound, the T/C (dose: 50.0 mg/kg/injection, schedule: Q04DX003 (ip), vehicle: saline) was 119 % of control, the T/C (dose: 100.0 mg/kg/injection, schedule: Q01DX001 (ip), vehicle: carboxymethylcellulose (CMC)) was 117 % of control and the T/C (dose: 200.0 mg/kg/injection, schedule: Q01DX001 (ip), vehicle: carboxymethylcellulose (CMC)) was 117 % of control. The T/C (dose: 400.0 mg/kg/injection, schedule: Q01DX001 (ip), vehicle: carboxymethylcellulose (CMC)) was 123 % of control.
`CC(C)CC(N)C(=O)OCc1ccccc1` (configuration not stated) was tested, and the T/C [5] was 105 % of control, the T/C [6] was 97 % of control and the T/C (dose: 200.0 mg/kg/injection, schedule: Q01DX009 (ip), vehicle: saline) was 107 % of control. The T/C [7] was 101 % of control, the T/C (dose: 400.0 mg/kg/injection, schedule: Q01DX009 (ip), vehicle: saline) was 98 % of control and the T/C [8] was 97 % of control.
In the case of `O=[N+]([O-])c1cc(C(F)(F)F)cc([N+](=O)[O-])c1N/N=C/c1ccc(F)cc1`, the T/C (dose: 25.0 mg/kg/injection, schedule: Q01DX009 (ip), vehicle: saline with Tween-80) is reported as 87 % of control, the T/C (dose: 50.0 mg/kg/injection, schedule: Q01DX009 (ip), vehicle: saline with Tween-80) is reported as 94 % of control and the T/C (dose: 100.0 mg/kg/injection, schedule: Q01DX009 (ip), vehicle: saline with Tween-80) is reported as 92 % of control and 89 % of control. The T/C (dose: 400.0 mg/kg/injection, schedule: Q01DX009 (ip), vehicle: saline with Tween-80) was 86 % of control.
`CCOC(=O)C1(C(C)=O)CC=CC1` was tested, and the T/C [9] was 100 % of control, the T/C [10] was 104 % of control and the T/C [11] was 100 % of control.
For `Cc1cc(N(CCCl)CCCl)ccc1C=Nc1ccccc1-c1ccccc1`, the T/C (dose: 5.0 mg/kg/injection, schedule: Q01DX Z (ip), vehicle: carboxymethylcellulose (CMC)) was 110 % of control, the T/C (dose: 10.0 mg/kg/injection, schedule: Q01DX Z (ip), vehicle: carboxymethylcellulose (CMC)) was 114 % of control and the T/C (dose: 40.0 mg/kg/injection, schedule: Q01DX Z (ip), vehicle: carboxymethylcellulose (CMC)) was 109 % of control. For the same compound, the T/C (dose: 80.0 mg/kg/injection, schedule: Q01DX Z (ip), vehicle: carboxymethylcellulose (CMC)) was 117 % of control.
For `CC(=O)NC1CCC(=O)C=C1c1ccccc1` (configuration not stated), the T/C [9] was 96 % of control, the T/C [10] was 107 % of control and the T/C [11] was 94 % of control.
With `Cc1ccc(C2(O)CCN(CCCC(=O)c3ccc(F)cc3)CC2)cc1` the T/C (dose: 3.12 mg/kg/injection, schedule: Q01DX009 (ip), vehicle: Klucel (hydroxypropylcellulose) (HPC)) was 101 % of control, the T/C (dose: 6.25 mg/kg/injection, schedule: Q01DX009 (ip), vehicle: Klucel (hydroxypropylcellulose) (HPC)) was 104 % of control and the T/C (dose: 12.5 mg/kg/injection, schedule: Q01DX009 (ip), vehicle: Klucel (hydroxypropylcellulose) (HPC)) was 101 % of control. For the same compound, the T/C (dose: 25.0 mg/kg/injection, schedule: Q01DX009 (ip), vehicle: Klucel (hydroxypropylcellulose) (HPC)) was 113 % of control and the T/C (dose: 50.0 mg/kg/injection, schedule: Q01DX009 (ip), vehicle: Klucel (hydroxypropylcellulose) (HPC)) was 104 % of control.
For `Cc1ccc(NC(=O)c2c(Br)c(Br)c(Br)c(Br)c2C(=O)O)cc1Cl`, the T/C [1] was 100 % of control, the T/C (dose: 100.0 mg/kg/injection, schedule: Q04DX002 (ip), vehicle: Klucel (hydroxypropylcellulose) (HPC)) was 96 % of control and the T/C [3] was 96 % of control. For the same compound, the T/C (dose: 200.0 mg/kg/injection, schedule: Q04DX002 (ip), vehicle: Klucel (hydroxypropylcellulose) (HPC)) was 110 % of control and the T/C (dose: 400.0 mg/kg/injection, schedule: Q04DX002 (ip), vehicle: Klucel (hydroxypropylcellulose) (HPC)) was 102 % of control.
With `NOCc1cccc2cccnc12` the T/C (dose: 25.0 mg/kg/injection, schedule: Q01DX009 (ip), vehicle: saline) was 100 % of control, the T/C (dose: 50.0 mg/kg/injection, schedule: Q01DX009 (ip), vehicle: saline) was 100 % of control and the T/C [5] was 97 % of control. For the same compound, the T/C [6] was 89 % of control, the T/C [7] was 94 % of control and the T/C [8] was 96 % of control.
`OC(c1ccc(Cl)cc1)(c1ccc(Cl)cc1)C(F)(Cl)Cl` was tested, and the T/C (dose: 26.6 mg/kg/injection, schedule: Q01DX Z (ip), vehicle: methylcellulose (MC)) was 87 % of control, the T/C (dose: 40.0 mg/kg/injection, schedule: Q01DX Z (ip), vehicle: methylcellulose (MC)) was 107 % of control and the T/C (dose: 60.0 mg/kg/injection, schedule: Q01DX Z (ip), vehicle: methylcellulose (MC)) was 96 % of control.
`Cc1ccc(S(=O)(=O)/C=C(\C=C/c2ccccc2)c2ccccc2)cc1` was tested, and the T/C (dose: 100.0 mg/kg/injection, schedule: Q04DX003 (ip), vehicle: acetone) was 95 % of control and the T/C (dose: 200.0 mg/kg/injection, schedule: Q04DX003 (ip), vehicle: acetone) was 95 % of control.

— PubChem BioAssay AID248 (DTP/NCI, 2004)
